Results reported in publication PMC5126668 (PeerJ, 2016).
“And” between values parts separate entries of the source, which are not always exact repeats. Identical values can stand only once.

Key:
rat kidney [1] = assay: Renal functional markers (BUN, Cr, NAG) in rats after a single oral dose; conditions: for BUN / Cr / NAG: rats, single oral dose
Description: ABT, a broad-spectrum nonspecific CYP inhibitor, was selected as a positive control inhibitor of CYP enzymes. Aristolochic acid A (AA I) was selected as the nephrotoxicity positive control in the study.
The samples were promptly centrifuged, and the biochemical parameters, including the levels of ALT, AST, BUN, Cr, and NAG, were then measured. The level of Kim-1 was measured in collected urine samples according to the kit instructions.

rat liver = assay: Hepatic functional markers (ALT, AST) in rats after a single oral dose; format: in vivo, Sprague–Dawley rats; conditions: 24 h after single oral dose, mg/kg: AA I 70, BAK 200, ABT 100, GA 100, combinations 200+100
Description: (§1) The blood samples were taken 24 h after the administration of a single oral dose in each group. The samples were promptly centrifuged, and the biochemical parameters, including the levels of ALT, AST, BUN, Cr, and NAG, were then measured. The level of Kim-1 was measured in collected urine samples according to the kit instructions.

rat kidney [2] = assay: Kim-1 in rat urine after a single oral dose (ELISA); format: in vivo, Sprague–Dawley rats; conditions: for KIM-1: single oral dose
Description: as §1

[3] = rat, 24 h after single oral dose, vs vehicle control
[4] = individual animals (Fig. 3 data)

Question: What does the source list for COc1cccc2c1cc([N+](=O)[O-])c1c(C(=O)O)cc3c(c12)OCO3 [AA I, Aristolochic acid A]?
Answer: BUN level (in words) (rat kidney [1]; [3]): significantly increased; Cr level (in words) (rat kidney [1]; [3]): significantly increased; NAG level (in words) (rat kidney [1]; [3]): significantly increased; BUN (rat kidney [1]; group Mean (Fig. 3 data)): 6.405 mmol/L; Cr (rat kidney [1]; group Mean (Fig. 3 data)): 367.877 µmol/L; NAG (rat kidney [1]; group Mean (Fig. 3 data)): 42.409 IU/L; BUN (rat kidney [1]; [4]): 5.797 mmol/L and 6.023 mmol/L and 6.135 mmol/L and 7.373 mmol/L and 6.698 mmol/L; Cr (rat kidney [1]; [4]): 298.782 µmol/L and 308.970 µmol/L and 369.706 µmol/L and 567.416 µmol/L and 294.508 µmol/L; NAG (rat kidney [1]; [4]): 23.912 IU/L and 43.077 IU/L and 48.176 IU/L and 27.429 IU/L and 69.451 IU/L; ALT (IU/L) (rat liver): 41.91±3.40 IU/L; AST (IU/L) (rat liver): 29.08±8.01 IU/L; Kim-1 level (in words) (rat kidney [2]; after single oral dose, vs vehicle control): significantly increased; KIM-1 (rat kidney [2]; group Mean (Fig. 3 data)): 1538.00 pg/mL; KIM-1 (rat kidney [2]; [4]): 804.00 pg/mL and 2994.00 pg/mL and 624.00 pg/mL and 2464.00 pg/mL
